Experiment [1] addresses T1, human GIP receptor (hGIPR) (Homo sapiens, UniProt P48546).
T1 construct: expressed in transfected cells; crude membranes
T1 sequence (P48546 22-466): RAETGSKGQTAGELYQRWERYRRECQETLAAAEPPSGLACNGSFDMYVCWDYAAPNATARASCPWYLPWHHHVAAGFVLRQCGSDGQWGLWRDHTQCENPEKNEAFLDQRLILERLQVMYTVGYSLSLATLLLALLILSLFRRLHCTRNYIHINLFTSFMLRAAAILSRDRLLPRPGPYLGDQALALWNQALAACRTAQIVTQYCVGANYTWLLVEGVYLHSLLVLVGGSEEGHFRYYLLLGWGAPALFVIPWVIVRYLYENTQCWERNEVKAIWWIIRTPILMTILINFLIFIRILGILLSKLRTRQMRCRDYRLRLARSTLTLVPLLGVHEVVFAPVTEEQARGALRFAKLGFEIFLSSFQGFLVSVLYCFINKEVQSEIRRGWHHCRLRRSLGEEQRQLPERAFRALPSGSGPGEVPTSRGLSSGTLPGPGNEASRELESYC
The experiment is described as follows: [125I]-GIP binding, SPA with membranes of CHO cells expressing hGIPR. The note with it: human GIPR; geometric mean (SEM, n); read-out: Binding Affinity Ki, nM (SEM, n) hGIPR.

The next experiment deals with T2, hGIPR (Homo sapiens, UniProt P48546).
T2 construct: expressed in transfected cells
T2 sequence (P48546 22-466): T1 sequence (P48546 22-466)
The experiment is described as follows: Functional cAMP formation (HTRF) in HEK-293 clonal cells expressing hGIPR, 0.1% bovine casein, without or with 1.0% human serum albumin. Format: cell-based. The note with it: 37° C.; for EC50: geometric mean, read-out: hGIPR EC50, nM (SEM, n); for Emax: percent of maximal response to GIP(1-42)NH2, read-out: hGIPR Emax, % ± SEM. The gist of the method:
(§1)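 Readings of the HTRF 665/620 nm ratio, which falls as cAMP rises, were converted to nM cAMP using a standard curve after 30 min peptide exposure at 37° C.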

The target of experiment [2] is T3, human GLP-1 receptor (hGLP-1R) (Homo sapiens, UniProt P43220).
T3 construct: expressed in transfected cells; crude membranes
Kind of experiment: [125I]-GLP-1 binding, SPA with membranes of HEK293 cells expressing hGLP-1R. The note with it: human GLP-1R; geometric mean (SEM, n); read-out: Binding Affinity Ki, nM (SEM, n) hGLP-1R.

For another experiment, the target named is hGLP-1R (Homo sapiens, UniProt P43220). The experiment is described as follows: Functional cAMP formation (HTRF) in HEK-293 clonal cells expressing hGLP-1R, 0.1% bovine casein, without or with 1.0% human serum albumin. It counts as cell-based. Details: expressed in transfected cells. The note with it: 37° C.; for Emax: percent of maximal response to GLP-1(7-36)NH2, read-out: hGLP-1R Emax, % ± SEM; for EC50: cAMP, read-out: hGLP-1R EC50, nM (SEM, n). The gist of the method: as §1

The next experiment has as its target T4, hGCGR (Homo sapiens, UniProt P47871).
T4 construct: expressed in transfected cells
The experiment is described as follows: Functional cAMP formation (HTRF) in HEK-293 clonal cells expressing hGCGR, 0.1% bovine casein, without or with 1.0% human serum albumin. Format: cell-based. The note with it: 37° C., read-out: hGCGR EC50, nM (SEM, n). The procedure, abridged:
as §1

Setting [3] is: HEK293, 0.1% bovine casein and 1.0% human serum albumin.
[4] abbreviates: HEK293, cAMP, 0.1% bovine casein, arithmetic mean.
The mark [5] stands for this setting: cAMP, 0.1% bovine casein (no human serum albumin).
[6] abbreviates: 0.1% bovine casein (no human serum albumin), geometric mean.
[7] abbreviates: 0.1% bovine casein and 1.0% human serum albumin, geometric mean.
[8] abbreviates: cAMP, 0.1% bovine casein (no human serum albumin), geometric mean.
Setting [9] is: HEK293, cAMP, 0.1% bovine casein and 1.0% human serum albumin.
[10] abbreviates: cAMP, 0.1% bovine casein and 1.0% human serum albumin, geometric mean (SEM, n).

The record followed here is patent US20230265151A1, “GIP/GLP1 CO-AGONIST COMPOUNDS” (priority 2020, published 2023).

Like-named read-outs stand apart in the source and are kept apart here.

T4 sequence (P47871 26-477): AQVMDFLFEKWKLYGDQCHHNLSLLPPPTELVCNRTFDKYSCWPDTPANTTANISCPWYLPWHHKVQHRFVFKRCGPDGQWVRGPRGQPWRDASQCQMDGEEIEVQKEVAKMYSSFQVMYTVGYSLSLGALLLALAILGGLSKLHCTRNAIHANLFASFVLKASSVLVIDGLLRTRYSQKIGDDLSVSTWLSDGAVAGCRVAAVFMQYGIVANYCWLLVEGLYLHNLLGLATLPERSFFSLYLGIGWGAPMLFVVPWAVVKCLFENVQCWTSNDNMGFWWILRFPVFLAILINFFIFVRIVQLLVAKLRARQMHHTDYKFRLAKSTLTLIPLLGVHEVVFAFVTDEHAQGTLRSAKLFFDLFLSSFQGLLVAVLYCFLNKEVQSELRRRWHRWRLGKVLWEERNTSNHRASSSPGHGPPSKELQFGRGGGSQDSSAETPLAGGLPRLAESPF
T3 sequence (P43220 24-463): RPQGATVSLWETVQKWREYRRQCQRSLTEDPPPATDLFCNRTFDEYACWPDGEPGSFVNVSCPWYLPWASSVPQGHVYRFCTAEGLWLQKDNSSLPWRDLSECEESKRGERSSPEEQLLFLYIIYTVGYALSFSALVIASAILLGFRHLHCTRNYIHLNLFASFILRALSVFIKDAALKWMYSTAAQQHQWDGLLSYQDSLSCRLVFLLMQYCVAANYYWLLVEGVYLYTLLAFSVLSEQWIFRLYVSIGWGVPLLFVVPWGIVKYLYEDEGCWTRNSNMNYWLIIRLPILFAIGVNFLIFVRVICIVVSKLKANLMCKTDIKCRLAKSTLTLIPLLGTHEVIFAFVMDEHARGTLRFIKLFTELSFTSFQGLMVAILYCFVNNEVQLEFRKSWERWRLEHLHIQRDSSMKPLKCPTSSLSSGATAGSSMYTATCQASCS
Chain of hGLP-1R (P43220 24-463): as above

On to `CCCCCCCCCCCC(=O)N[C@@H](CCC(=O)NCCOCCOCC(=O)NCCOCCOCC(=O)NCCCC[C@H](NC(=O)[C@H](CO)NC(=O)[C@@H]1CCCN1C(=O)[C@@H]1CCCN1C(=O)[C@@H]1CCCN1C(=O)[C@H](C)NC(=O)CNC(=O)[C@H](CO)NC(=O)[C@H](CO)NC(=O)[C@@H]1CCCN1C(=O)CNC(=O)CNC(=O)[C@H](CCC(=O)O)NC(=O)[C@@H](NC(=O)[C@H](CC(C)C)NC(=O)[C@](C)(Cc1ccc(O)cc1)NC(=O)[C@@H](CCC(=O)O)NC(=O)[C@@H](NC(=O)[C@H](Cc1ccccc1)NC(=O)[C@H](CCC(=O)O)NC(=O)C(C)(C)NC(=O)[C@H](CCC(N)=O)NC(=O)[C@H](C)NC(=O)[C@H](CCCCNC(=O)COCCOCCNC(=O)COCCOCCNC(=O)CC[C@H](NC(=O)CCCCCCCCCCC)C(=O)O)NC(=O)[C@H](CCCN)NC(=O)[C@H](CC(=O)O)NC(=O)[C@H](CC(C)C)NC(=O)[C@](C)(CC(C)C)NC(=O)[C@@H](NC(=O)C(C)(C)NC(=O)[C@H](Cc1ccc(O)cc1)NC(=O)[C@H](CC(=O)O)NC(=O)[C@H](CO)NC(=O)[C@@H](NC(=O)[C@](C)(Cc1ccccc1F)NC(=O)[C@@H](NC(=O)CNC(=O)[C@H](CCC(=O)O)NC(=O)C(C)(C)NC(=O)[C@@H](N)Cc1ccc(O)cc1)[C@@H](C)O)[C@@H](C)O)[C@@H](C)CC)[C@@H](C)CC)[C@@H](C)CC)C(N)=O)C(=O)O` [Example 302], for which the Ki in experiment [1] was determined as 0.0228 nM; in experiment [2], 0.137 nM. Besides, the 50% effective concentration (EC50) on hGIPR (0.1% bovine casein and 1.0% human serum albumin) is 0.453 nM; on hGIPR (setting [5]), 0.00916 nM; on hGLP-1R (setting [6]), 0.0917 nM; at hGCGR (setting [7]), above 9950 nM; on hGCGR (setting [8]) it was above 9950 nM. For the same molecule, the Emax amounted to 86.3% on hGIPR (setting [3]), 100% at hGIPR (setting [4]) and 99.4% at hGLP-1R (setting [3]).
Turning to `CCCCCCCCCCCC(=O)N[C@@H](CCC(=O)NCCOCCOCC(=O)NCCOCCOCC(=O)NCCOCCOCC(=O)NCCCC[C@H](NC(=O)[C@H](CCCN)NC(=O)[C@H](CC(=O)O)NC(=O)[C@H](CC(C)C)NC(=O)[C@](C)(CC(C)C)NC(=O)[C@@H](NC(=O)C(C)(C)NC(=O)[C@H](CCCCNC(=O)COCCOCCNC(=O)COCCOCCNC(=O)COCCOCCNC(=O)CC[C@H](NC(=O)CCCCCCCCCCC)C(=O)O)NC(=O)[C@H](CC(=O)O)NC(=O)[C@H](CO)NC(=O)[C@@H](NC(=O)[C@](C)(Cc1ccccc1F)NC(=O)[C@@H](NC(=O)CNC(=O)[C@H](CCC(=O)O)NC(=O)C(C)(C)NC(=O)[C@@H](N)Cc1ccc(O)cc1)[C@@H](C)O)[C@@H](C)O)[C@@H](C)CC)C(=O)N[C@@H](C)C(=O)N[C@@H](CCC(N)=O)C(=O)NC(C)(C)C(=O)N[C@@H](CCCN)C(=O)N[C@@H](Cc1ccccc1)C(=O)N[C@H](C(=O)N[C@H](CCC(=O)O)C(=O)N[C@@](C)(Cc1ccc(O)cc1)C(=O)N[C@@H](CC(C)C)C(=O)N[C@H](C(=O)N[C@@H](CCC(=O)O)C(=O)NCC(=O)NCC(=O)N1CCC[C@H]1C(=O)N[C@@H](CO)C(=O)N[C@@H](CO)C(=O)NCC(=O)N[C@@H](C)C(=O)N1CCC[C@H]1C(=O)N1CCC[C@H]1C(=O)N1CCC[C@H]1C(=O)N[C@@H](CO)C(N)=O)[C@@H](C)CC)[C@@H](C)CC)C(=O)O` [Example 432], the inhibition constant Ki in experiment [1] was 0.0134 nM; in experiment [2], 0.134 nM. Further, the Emax at hGIPR (setting [9]) was 96.7%. Also, the EC50 is 0.00602 nM at hGIPR (setting [5]); 0.0549 nM on hGLP-1R (setting [6]); 1.28 nM at hGLP-1R (0.1% bovine casein and 1.0% human serum albumin, geometric mean (SEM, n)); above 9950 nM at hGCGR (setting [8]); above 9950 nM at hGCGR (setting [10]).
On to `CCCCCCCCCCCC(=O)N[C@@H](CCC(=O)NCCOCCOCC(=O)NCCOCCOCC(=O)NCCCC[C@H](NC(=O)[C@H](CCCN)NC(=O)[C@H](CC(=O)O)NC(=O)[C@H](CC(C)C)NC(=O)[C@](C)(CC(C)C)NC(=O)[C@@H](NC(=O)[C@H](CO)NC(=O)[C@H](Cc1ccncc1)NC(=O)[C@H](CC(=O)O)NC(=O)[C@H](CO)NC(=O)[C@@H](NC(=O)[C@](C)(Cc1ccccc1F)NC(=O)[C@@H](NC(=O)CNC(=O)[C@H](CCC(=O)O)NC(=O)C(C)(C)NC(=O)[C@@H](N)Cc1ccc(O)cc1)[C@@H](C)O)[C@@H](C)O)[C@@H](C)CC)C(=O)N[C@@H](C)C(=O)N[C@@H](CCC(N)=O)C(=O)NC(C)(C)C(=O)N[C@@H](CCCCNC(=O)COCCOCCNC(=O)COCCOCCNC(=O)CC[C@H](NC(=O)CCCCCCCCCCC)C(=O)O)C(=O)N[C@@H](Cc1ccccc1)C(=O)N[C@H](C(=O)N[C@H](CCC(=O)O)C(=O)N[C@@](C)(Cc1ccc(O)cc1)C(=O)N[C@@H](CC(C)C)C(=O)N[C@H](C(=O)N[C@@H](CCCN)C(=O)NCC(=O)NCC(=O)N1CCC[C@H]1C(=O)N[C@@H](CO)C(=O)N[C@@H](CO)C(=O)NCC(=O)N[C@@H](C)C(=O)N1CCC[C@H]1C(=O)N1CCC[C@H]1C(=O)N1CCC[C@H]1C(=O)N[C@@H](CO)C(N)=O)[C@@H](C)CC)[C@@H](C)CC)C(=O)O` [Example 298], for which the Ki in experiment [1] came to 0.0131 nM; in experiment [2], 0.119 nM. Further, the Emax at hGIPR (setting [3]) was 95%; at hGIPR (setting [4]), 97.4%. The EC50 at hGIPR (setting [5]) is 0.0107 nM; on hGLP-1R (setting [6]), 0.19 nM; at hGCGR (setting [7]) it was above 9950 nM; on hGCGR (setting [8]), above 9950 nM.
Take `CC[C@H](C)[C@H](NC(=O)[C@H](CC(C)C)NC(=O)[C@](C)(Cc1ccc(O)cc1)NC(=O)[C@H](CCCCNC(=O)COCCOCCNC(=O)COCCOCCNC(=O)CC[C@H](NC(=O)CCCCCCCCCCCCC(=O)O)C(=O)O)NC(=O)[C@@H](NC(=O)[C@H](Cc1ccccc1)NC(=O)[C@H](CCCN)NC(=O)C(C)(C)NC(=O)[C@H](CCC(N)=O)NC(=O)[C@H](C)NC(=O)[C@H](CCC(N)=O)NC(=O)[C@H](CCCN)NC(=O)[C@H](CC(=O)O)NC(=O)[C@H](CC(C)C)NC(=O)[C@](C)(CC(C)C)NC(=O)[C@@H](NC(=O)[C@H](CO)NC(=O)[C@H](CCc1ccc(O)cc1)NC(=O)[C@H](CC(=O)O)NC(=O)[C@H](CO)NC(=O)[C@@H](NC(=O)[C@](C)(Cc1ccccc1F)NC(=O)[C@@H](NC(=O)CNC(=O)[C@H](CCC(=O)O)NC(=O)C(C)(C)NC(=O)[C@@H](N)Cc1ccc(O)cc1)[C@@H](C)O)[C@@H](C)O)[C@@H](C)CC)[C@@H](C)CC)C(=O)N[C@@H](CCCCNC(=O)COCCOCCNC(=O)COCCOCCNC(=O)CC[C@H](NC(=O)CCCCCCCCCCCCC(=O)O)C(=O)O)C(=O)NCC(=O)NCC(=O)N1CCC[C@H]1C(=O)N[C@@H](CO)C(=O)N[C@@H](CO)C(=O)NCC(=O)N[C@@H](C)C(=O)N1CCC[C@H]1C(=O)N1CCC[C@H]1C(=O)N1CCC[C@H]1C(=O)N[C@@H](CO)C(N)=O` [Example 491]: the Ki came to 0.0301 nM in experiment [1] and 0.182 nM in experiment [2]. Further, the Emax at hGIPR (setting [9]) was found to be 87.5%; at hGIPR (setting [4]) it was 100%; on hGLP-1R (setting [9]) it was 105%; at hGLP-1R (setting [4]), 119%. Besides, the EC50 was 0.0148 nM on hGIPR (setting [5]), 0.148 nM on hGLP-1R (setting [6]), above 9950 nM at hGCGR (setting [8]) and above 9950 nM on hGCGR (setting [10]).
